This note sets out measurements from PubChem BioAssay (NCI).

Test systems include MCF7 breast; DU-145 prostate; HCC-2998 colon; SR leukemia; HT29 colon; CAKI-1 renal; PC-3 prostate; M14 melanoma; NCI-H460 lung; SF-295 CNS.
Holding throughout (assay): NCI anticancer screen, dose series, 48 h

Values joined by “and” are separate entries in the source; they are usually repeats but may differ in a detail not shown here. Equal entries are not always repeated.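 How tested: cells in 96-well plates exposed to compound for 48 hours at five concentrations. GI50 = concentration required for 50% inhibition of growth. The concentration for full growth arrest is given as TGI.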

As to `COc1cc(C)c(S(=O)(=O)N(CCCN)OCCCN)c(C)c1C`, the TGI is 53.1 µM with MCF7 breast; greater than 100 µM with DU-145 prostate; 57.1 µM with HCC-2998 colon; 38.6 µM in the assay on SR leukemia; greater than 100 µM in the assay with HT29 colon; greater than 100 µM in the assay with CAKI-1 renal. Further, the TGI in the assay with PC-3 prostate was 77.3 µM; with M14 melanoma, 65.2 µM; with NCI-H460 lung it was greater than 100 µM; in the assay on SF-295 CNS, greater than 100 µM.

`CC(C)(CO)Nc1c(O)c2c(c(O)c1Cl)C(=O)C=CC2=O`: the TGI in the assay on MCF7 breast turned out to be 2.65 µM; in the assay on DU-145 prostate, 3.35 µM; in the assay with HCC-2998 colon, 2.75 µM; in the assay with SR leukemia it was 0.782 µM; with HT29 colon, 3.4 µM; with CAKI-1 renal, 3.41 µM. Also, the TGI in the assay with PC-3 prostate is 3.41 µM; in the assay on M14 melanoma, 2.26 µM; in the assay on NCI-H460 lung, 4.28 µM; in the assay with SF-295 CNS it was 3.21 µM.

For the compound `Cc1nc2ccccc2nc1N1CCCC1`, the TGI in the assay on MCF7 breast, in the assay on DU-145 prostate, in the assay on HCC-2998 colon, in the assay with SR leukemia, in the assay on HT29 colon and with CAKI-1 renal was greater than 100 µM throughout. For the same compound, the TGI in the assay on PC-3 prostate, with M14 melanoma, in the assay on NCI-H460 lung and in the assay with SF-295 CNS was greater than 100 µM in each case.

For `CN1CCN(C2CC(=O)c3c(Cl)sc(Cl)c32)CC1` (configuration not stated), the TGI was greater than 100 µM in the assay with MCF7 breast; 30.2 µM in the assay with DU-145 prostate; 24.6 µM in the assay on HCC-2998 colon; greater than 100 µM with SR leukemia; 33.7 µM in the assay with HT29 colon; 39.6 µM with CAKI-1 renal. For the same compound, the TGI in the assay on PC-3 prostate was greater than 100 µM; in the assay on M14 melanoma, 20.7 µM; with NCI-H460 lung, greater than 75.3 µM; in the assay on SF-295 CNS, greater than 31.6 µM.

For the compound `CCOC(=O)/C=C/C(Br)=C(Br)/C=C/C(=O)OCC`, the TGI in the assay on MCF7 breast is 26.2 µM; with DU-145 prostate it was 29.1 µM; in the assay on HCC-2998 colon it was 49 µM; with SR leukemia, 34.4 µM; with HT29 colon it was 29.1 µM; in the assay with CAKI-1 renal it was 13.9 µM. The TGI was 28 µM in the assay with PC-3 prostate, 30.3 µM in the assay with M14 melanoma, greater than 100 µM with NCI-H460 lung and 28.8 µM in the assay on SF-295 CNS.

Take `C/C(=N/NC(=O)c1ccccc1Nc1ccccc1C(=O)N/N=C(\C)c1ccc(C)cc1)c1ccc(C)cc1`: the TGI in the assay with MCF7 breast, in the assay with DU-145 prostate, in the assay with HCC-2998 colon, in the assay on SR leukemia, with HT29 colon and in the assay on CAKI-1 renal was greater than 100 µM in each case. The TGI in the assay with PC-3 prostate, with M14 melanoma, with NCI-H460 lung and in the assay with SF-295 CNS was greater than 100 µM in each case.

As to `CC(=O)c1c2c(cc3c1CCC3)CCC2`, the TGI in the assay on MCF7 breast, in the assay on DU-145 prostate, with HCC-2998 colon, in the assay with SR leukemia, in the assay with HT29 colon and in the assay on CAKI-1 renal was greater than 100 µM each time. The TGI with PC-3 prostate, with M14 melanoma, in the assay on NCI-H460 lung and in the assay on SF-295 CNS was greater than 100 µM throughout.

Regarding `COC1OC(=O)C(OC)C(OC)C1OC` (configuration not stated), the TGI with MCF7 breast, with DU-145 prostate, with HCC-2998 colon, in the assay with SR leukemia, in the assay on HT29 colon and with CAKI-1 renal was greater than 100 µM each time. For the same compound, the TGI with PC-3 prostate, with M14 melanoma, in the assay on NCI-H460 lung and with SF-295 CNS was greater than 100 µM each time.

Turning to `C[C@@H]1CC(=O)[C@@]2(C)[C@](O)(CCC3O[C@]32C)[C@@]12CC(c1ccoc1)OC2=O` (some centres not stated), the TGI was greater than 100 µM with MCF7 breast; greater than 100 µM in the assay with DU-145 prostate; greater than 100 µM with HCC-2998 colon; 68.5 µM in the assay on SR leukemia; greater than 100 µM in the assay with HT29 colon; greater than 100 µM in the assay on CAKI-1 renal. In addition, the TGI in the assay with PC-3 prostate, with M14 melanoma, with NCI-H460 lung and in the assay on SF-295 CNS was greater than 100 µM in each case.

On to `CN1C(=O)[C@](C)(Cc2ccc(F)cc2)N(C(=O)OC(C)(C)C)[C@@H]1C(C)(C)C`, for which the TGI with MCF7 breast is 59.3 µM; in the assay with DU-145 prostate it was greater than 100 µM; in the assay on HCC-2998 colon it was 76.2 µM; in the assay on SR leukemia, 43.9 µM; in the assay with HT29 colon it was 45.6 µM; in the assay with CAKI-1 renal it was greater than 100 µM. Further, the TGI in the assay on PC-3 prostate is greater than 100 µM; with M14 melanoma, greater than 100 µM; in the assay on NCI-H460 lung it was greater than 100 µM; in the assay with SF-295 CNS, 50.7 µM.

`COc1ccc(C(OCC2OC(n3ccc(Oc4c(F)c(F)c(F)c(F)c4F)nc3=O)CC2OP(OCCC#N)N(C(C)C)C(C)C)(c2ccccc2)c2ccc(OC)cc2)cc1` (configuration not stated): the TGI with MCF7 breast, in the assay on DU-145 prostate, in the assay on HCC-2998 colon, with SR leukemia, in the assay on HT29 colon and in the assay on CAKI-1 renal was greater than 100 µM in each case. Also, the TGI with PC-3 prostate, with M14 melanoma, in the assay on NCI-H460 lung and in the assay on SF-295 CNS was greater than 100 µM in each case.

Take `O=C1CCc2c(sc3ncnc(Nc4cccc(Br)c4)c23)C1`: the TGI with MCF7 breast was 22.3 µM; in the assay with DU-145 prostate, 17.3 µM; in the assay on HCC-2998 colon, 15 µM; with SR leukemia, 7.82 µM; in the assay with HT29 colon it was 27 µM; with CAKI-1 renal it was 12.5 µM. In addition, the TGI in the assay with PC-3 prostate stood at 10.3 µM; in the assay on M14 melanoma it was 13.9 µM; with NCI-H460 lung, 12.9 µM; in the assay on SF-295 CNS, 15.3 µM.

On to `Nc1nn2cc(-c3ccccc3)[n+](CC(=O)c3ccccc3)c2s1`, for which the TGI in the assay with MCF7 breast was 24.6 µM; with DU-145 prostate, greater than 100 µM; in the assay on HCC-2998 colon it was 31.7 µM; with SR leukemia it was 48 µM; in the assay on HT29 colon it was greater than 100 µM; in the assay on CAKI-1 renal, greater than 100 µM. The TGI in the assay with PC-3 prostate is greater than 100 µM; in the assay on M14 melanoma, 40.6 µM; in the assay on NCI-H460 lung, greater than 100 µM; with SF-295 CNS, greater than 100 µM.

On to `CC1=NNC(N)=N/C1=C\C(Sc1ccc(Cl)cc1)c1ccc(Cl)cc1Cl` (configuration not stated), for which the TGI with MCF7 breast was 16.4 µM; with DU-145 prostate, 61.7 µM; in the assay on HCC-2998 colon it was 17 µM; in the assay with SR leukemia, greater than 100 µM; in the assay on HT29 colon, 14.2 µM; with CAKI-1 renal, greater than 67.1 µM. For the same compound, the TGI in the assay on PC-3 prostate came out at 26.4 µM; with M14 melanoma, 31.8 µM; in the assay with NCI-H460 lung it was 29.3 µM; with SF-295 CNS, 52.9 µM.

On to `CCOC(=O)CCN1C(=O)c2c(NC(=O)C(=O)O)cccc2S1(=O)=O`, for which the TGI in the assay with MCF7 breast, with DU-145 prostate, in the assay with HCC-2998 colon, in the assay on SR leukemia, in the assay on HT29 colon and in the assay on CAKI-1 renal was greater than 100 µM throughout. In addition, the TGI in the assay on PC-3 prostate, with M14 melanoma, in the assay on NCI-H460 lung and in the assay with SF-295 CNS was greater than 100 µM each time.

As to `Cc1nc2cccc(F)c2c(=O)n1-c1nnc(C2CC2)s1`, the TGI with MCF7 breast, with DU-145 prostate, in the assay on HCC-2998 colon, in the assay on SR leukemia, with HT29 colon and with CAKI-1 renal was greater than 10 µM throughout. For the same compound, the TGI in the assay with PC-3 prostate, with M14 melanoma, with NCI-H460 lung and in the assay on SF-295 CNS was greater than 10 µM in each case.

On to `Cc1cc(C)c(N)c(CO)c1`, for which the GI50 with MCF7 breast is 7.28 µM and 16 µM; in the assay with HT29 colon, 12.5 µM and 38.2 µM. Moreover, the TGI was greater than 100 µM with MCF7 breast; greater than 100 µM in the assay on DU-145 prostate; greater than 100 µM in the assay on HCC-2998 colon; greater than 100 µM with SR leukemia; greater than 100 µM in the assay on HT29 colon; > 32.1 µM and 27.5 µM in the assay with CAKI-1 renal. Also, the TGI in the assay with PC-3 prostate, in the assay on M14 melanoma, in the assay with NCI-H460 lung and in the assay on SF-295 CNS was greater than 100 µM throughout.

On to `CC(=O)OC1COC(n2c(N)c(C#N)c(-c3ccccc3)c(C#N)c2=S)C(OC(C)=O)C1OC(C)=O` (configuration not stated), for which the TGI is greater than 100 µM in the assay with MCF7 breast; greater than 100 µM in the assay on DU-145 prostate; 90.1 µM and 56.9 µM in the assay on HCC-2998 colon; 46.3 µM and 52.2 µM in the assay with SR leukemia; greater than 100 µM in the assay on HT29 colon; greater than 100 µM in the assay on CAKI-1 renal. For the same compound, the TGI in the assay with PC-3 prostate, with M14 melanoma, in the assay with NCI-H460 lung and in the assay on SF-295 CNS was greater than 100 µM each time.

In the case of `O=C(Nc1ccccc1C(=O)O)C(=Cc1ccccc1O)NC(=O)c1ccccc1`, the TGI in the assay on MCF7 breast, with DU-145 prostate, in the assay with HCC-2998 colon, in the assay on SR leukemia, in the assay on HT29 colon and in the assay on CAKI-1 renal was greater than 100 µM in each case. The TGI with PC-3 prostate, with M14 melanoma, in the assay with NCI-H460 lung and in the assay with SF-295 CNS was greater than 100 µM throughout.
